{
  "source": "the NIST ThermoML archive (doi:10.1021/je030130y)",
  "experiment": "xn = mol fraction of the nth substance listed",
  "details": "101.3 kPa, Liquid; for viscosity: Capillary tube (Ostwald / Ubbelohde) method; for mass density: Pycnometric method",
  "note": "Numbers after ± are expanded uncertainties.",
  "data": [
    {"smiles": "Clc1ccccc1", "note": "[chlorobenzene] + CN(C)C=O", "values": [
      {"measurement": "viscosity", "setting": "298.15 K, x2 = 0", "value": "0.756 ± 0.006", "unit": "mPa·s"},
      {"measurement": "viscosity", "setting": "298.15 K, x2 = 0.1473", "value": "0.79 ± 0.006", "unit": "mPa·s"},
      {"measurement": "viscosity", "setting": "298.15 K, x2 = 0.2093", "value": "0.804 ± 0.006", "unit": "mPa·s"},
      {"measurement": "viscosity", "setting": "298.15 K, x2 = 0.2762", "value": "0.818 ± 0.006", "unit": "mPa·s"},
      {"measurement": "viscosity", "setting": "298.15 K, x2 = 0.4032", "value": "0.838 ± 0.006", "unit": "mPa·s"},
      {"measurement": "viscosity", "setting": "298.15 K, x2 = 0.4661", "value": "0.847 ± 0.006", "unit": "mPa·s"},
      {"measurement": "viscosity", "setting": "298.15 K, x2 = 0.6084", "value": "0.862 ± 0.006", "unit": "mPa·s"},
      {"measurement": "viscosity", "setting": "298.15 K, x2 = 0.7009", "value": "0.856 ± 0.006", "unit": "mPa·s"},
      {"measurement": "viscosity", "setting": "298.15 K, x2 = 0.7842", "value": "0.846 ± 0.006", "unit": "mPa·s"},
      {"measurement": "viscosity", "setting": "298.15 K, x2 = 0.9351", "value": "0.818 ± 0.006", "unit": "mPa·s"},
      {"measurement": "mass density", "setting": "298.15 K, x2 = 0", "value": "1100.9 ± 0.4", "unit": "kg/m3"},
      {"measurement": "mass density", "setting": "298.15 K, x2 = 0.1473", "value": "1083.5 ± 0.4", "unit": "kg/m3"},
      {"measurement": "mass density", "setting": "298.15 K, x2 = 0.2093", "value": "1076.3 ± 0.4", "unit": "kg/m3"},
      {"measurement": "mass density", "setting": "298.15 K, x2 = 0.2762", "value": "1068.1 ± 0.4", "unit": "kg/m3"},
      {"measurement": "mass density", "setting": "298.15 K, x2 = 0.4032", "value": "1051.2 ± 0.4", "unit": "kg/m3"},
      {"measurement": "mass density", "setting": "298.15 K, x2 = 0.4661", "value": "1042.2 ± 0.4", "unit": "kg/m3"},
      {"measurement": "mass density", "setting": "298.15 K, x2 = 0.6084", "value": "1020.2 ± 0.4", "unit": "kg/m3"},
      {"measurement": "mass density", "setting": "298.15 K, x2 = 0.7009", "value": "1003.8 ± 0.4", "unit": "kg/m3"},
      {"measurement": "mass density", "setting": "298.15 K, x2 = 0.7842", "value": "988.1 ± 0.4", "unit": "kg/m3"},
      {"measurement": "mass density", "setting": "298.15 K, x2 = 0.9351", "value": "957.7 ± 0.3", "unit": "kg/m3"},
      {"measurement": "viscosity", "setting": "303.15 K, x2 = 0", "value": "0.714 ± 0.006", "unit": "mPa·s"},
      {"measurement": "viscosity", "setting": "303.15 K, x2 = 0.1473", "value": "0.745 ± 0.006", "unit": "mPa·s"},
      {"measurement": "viscosity", "setting": "303.15 K, x2 = 0.2093", "value": "0.757 ± 0.006", "unit": "mPa·s"},
      {"measurement": "viscosity", "setting": "303.15 K, x2 = 0.2762", "value": "0.77 ± 0.006", "unit": "mPa·s"},
      {"measurement": "viscosity", "setting": "303.15 K, x2 = 0.4032", "value": "0.788 ± 0.006", "unit": "mPa·s"},
      {"measurement": "viscosity", "setting": "303.15 K, x2 = 0.4661", "value": "0.795 ± 0.006", "unit": "mPa·s"},
      {"measurement": "viscosity", "setting": "303.15 K, x2 = 0.6084", "value": "0.808 ± 0.006", "unit": "mPa·s"},
      {"measurement": "viscosity", "setting": "303.15 K, x2 = 0.7009", "value": "0.803 ± 0.006", "unit": "mPa·s"},
      {"measurement": "viscosity", "setting": "303.15 K, x2 = 0.7842", "value": "0.794 ± 0.006", "unit": "mPa·s"},
      {"measurement": "viscosity", "setting": "303.15 K, x2 = 0.9351", "value": "0.769 ± 0.006", "unit": "mPa·s"},
      {"measurement": "mass density", "setting": "303.15 K, x2 = 0", "value": "1095.8 ± 0.4", "unit": "kg/m3"},
      {"measurement": "mass density", "setting": "303.15 K, x2 = 0.1473", "value": "1078.5 ± 0.4", "unit": "kg/m3"},
      {"measurement": "mass density", "setting": "303.15 K, x2 = 0.2093", "value": "1071.3 ± 0.4", "unit": "kg/m3"},
      {"measurement": "mass density", "setting": "303.15 K, x2 = 0.2762", "value": "1063.2 ± 0.4", "unit": "kg/m3"},
      {"measurement": "mass density", "setting": "303.15 K, x2 = 0.4032", "value": "1046.3 ± 0.4", "unit": "kg/m3"},
      {"measurement": "mass density", "setting": "303.15 K, x2 = 0.4661", "value": "1037.3 ± 0.4", "unit": "kg/m3"},
      {"measurement": "mass density", "setting": "303.15 K, x2 = 0.6084", "value": "1015.4 ± 0.4", "unit": "kg/m3"},
      {"measurement": "mass density", "setting": "303.15 K, x2 = 0.7009", "value": "999.1 ± 0.4", "unit": "kg/m3"},
      {"measurement": "mass density", "setting": "303.15 K, x2 = 0.7842", "value": "983.4 ± 0.4", "unit": "kg/m3"},
      {"measurement": "mass density", "setting": "303.15 K, x2 = 0.9351", "value": "953 ± 0.3", "unit": "kg/m3"},
      {"measurement": "viscosity", "setting": "308.15 K, x2 = 0", "value": "0.673 ± 0.005", "unit": "mPa·s"},
      {"measurement": "viscosity", "setting": "308.15 K, x2 = 0.1473", "value": "0.701 ± 0.005", "unit": "mPa·s"},
      {"measurement": "viscosity", "setting": "308.15 K, x2 = 0.2093", "value": "0.712 ± 0.006", "unit": "mPa·s"},
      {"measurement": "viscosity", "setting": "308.15 K, x2 = 0.2762", "value": "0.723 ± 0.006", "unit": "mPa·s"},
      {"measurement": "viscosity", "setting": "308.15 K, x2 = 0.4032", "value": "0.739 ± 0.006", "unit": "mPa·s"},
      {"measurement": "viscosity", "setting": "308.15 K, x2 = 0.4661", "value": "0.745 ± 0.006", "unit": "mPa·s"},
      {"measurement": "viscosity", "setting": "308.15 K, x2 = 0.6084", "value": "0.757 ± 0.006", "unit": "mPa·s"},
      {"measurement": "viscosity", "setting": "308.15 K, x2 = 0.7009", "value": "0.752 ± 0.006", "unit": "mPa·s"},
      {"measurement": "viscosity", "setting": "308.15 K, x2 = 0.7842", "value": "0.744 ± 0.006", "unit": "mPa·s"},
      {"measurement": "viscosity", "setting": "308.15 K, x2 = 0.9351", "value": "0.721 ± 0.006", "unit": "mPa·s"},
      {"measurement": "mass density", "setting": "308.15 K, x2 = 0", "value": "1090.8 ± 0.4", "unit": "kg/m3"},
      {"measurement": "mass density", "setting": "308.15 K, x2 = 0.1473", "value": "1073.6 ± 0.4", "unit": "kg/m3"},
      {"measurement": "mass density", "setting": "308.15 K, x2 = 0.2093", "value": "1066.5 ± 0.4", "unit": "kg/m3"},
      {"measurement": "mass density", "setting": "308.15 K, x2 = 0.2762", "value": "1058.3 ± 0.4", "unit": "kg/m3"},
      {"measurement": "mass density", "setting": "308.15 K, x2 = 0.4032", "value": "1041.5 ± 0.4", "unit": "kg/m3"},
      {"measurement": "mass density", "setting": "308.15 K, x2 = 0.4661", "value": "1032.5 ± 0.4", "unit": "kg/m3"},
      {"measurement": "mass density", "setting": "308.15 K, x2 = 0.6084", "value": "1010.6 ± 0.4", "unit": "kg/m3"},
      {"measurement": "mass density", "setting": "308.15 K, x2 = 0.7009", "value": "994.5 ± 0.4", "unit": "kg/m3"},
      {"measurement": "mass density", "setting": "308.15 K, x2 = 0.7842", "value": "978.7 ± 0.4", "unit": "kg/m3"},
      {"measurement": "mass density", "setting": "308.15 K, x2 = 0.9351", "value": "948.3 ± 0.4", "unit": "kg/m3"},
      {"measurement": "viscosity", "setting": "313.15 K, x2 = 0", "value": "0.635 ± 0.005", "unit": "mPa·s"},
      {"measurement": "viscosity", "setting": "313.15 K, x2 = 0.1473", "value": "0.661 ± 0.005", "unit": "mPa·s"},
      {"measurement": "viscosity", "setting": "313.15 K, x2 = 0.2093", "value": "0.671 ± 0.005", "unit": "mPa·s"},
      {"measurement": "viscosity", "setting": "313.15 K, x2 = 0.2762", "value": "0.681 ± 0.005", "unit": "mPa·s"},
      {"measurement": "viscosity", "setting": "313.15 K, x2 = 0.4032", "value": "0.696 ± 0.005", "unit": "mPa·s"},
      {"measurement": "viscosity", "setting": "313.15 K, x2 = 0.4661", "value": "0.702 ± 0.005", "unit": "mPa·s"},
      {"measurement": "viscosity", "setting": "313.15 K, x2 = 0.6084", "value": "0.714 ± 0.006", "unit": "mPa·s"},
      {"measurement": "viscosity", "setting": "313.15 K, x2 = 0.7009", "value": "0.709 ± 0.005", "unit": "mPa·s"},
      {"measurement": "viscosity", "setting": "313.15 K, x2 = 0.7842", "value": "0.702 ± 0.005", "unit": "mPa·s"},
      {"measurement": "viscosity", "setting": "313.15 K, x2 = 0.9351", "value": "0.683 ± 0.005", "unit": "mPa·s"},
      {"measurement": "mass density", "setting": "313.15 K, x2 = 0", "value": "1085.1 ± 0.4", "unit": "kg/m3"},
      {"measurement": "mass density", "setting": "313.15 K, x2 = 0.1473", "value": "1068.1 ± 0.4", "unit": "kg/m3"},
      {"measurement": "mass density", "setting": "313.15 K, x2 = 0.2093", "value": "1063.1 ± 4", "unit": "kg/m3"},
      {"measurement": "mass density", "setting": "313.15 K, x2 = 0.2762", "value": "1052.9 ± 0.4", "unit": "kg/m3"},
      {"measurement": "mass density", "setting": "313.15 K, x2 = 0.4032", "value": "1036.3 ± 0.4", "unit": "kg/m3"},
      {"measurement": "mass density", "setting": "313.15 K, x2 = 0.4661", "value": "1027.2 ± 0.4", "unit": "kg/m3"},
      {"measurement": "mass density", "setting": "313.15 K, x2 = 0.6084", "value": "1005.4 ± 0.4", "unit": "kg/m3"},
      {"measurement": "mass density", "setting": "313.15 K, x2 = 0.7009", "value": "989.4 ± 0.4", "unit": "kg/m3"},
      {"measurement": "mass density", "setting": "313.15 K, x2 = 0.7842", "value": "973.7 ± 0.4", "unit": "kg/m3"},
      {"measurement": "mass density", "setting": "313.15 K, x2 = 0.9351", "value": "943.4 ± 0.4", "unit": "kg/m3"}
    ]}
  ]
}
